The values below come from patent EP4454666A1, “IN VIVO IMAGING OF AN ALS BIOMARKER AND MEANS THEREFOR” (Société de Commercialisation des Produits de la Recherche …, priority 2023, dated 2024).

In one assay the test system is mSOD1 aggregates. As to the kind of experiment: PET imaging of spinal cord mSOD1 aggregates (spots). The class given is in vivo, mice.
Assay [1] has as its target T1, denatured human SOD1 (human, UniProt P00441 2-154).
T1 construct: also called misfolded SOD1; mSOD1
As to the kind of experiment: direct ELISA on denatured human SOD1 (Fig. 6A). (In general: An ELISA detects its analyte on a solid surface through an enzyme-linked reagent.)

Assay [2] concerns the target T1, denatured human SOD1. Put plainly: ELISA on misfolded SOD1 (refers to Fig. 6).
For assay [3], the target named is T1, denatured human SOD1. As to the kind of experiment: direct ELISA on denatured human SOD1 (mSOD1).

T1 sequence (P00441 2-154 limits assumed): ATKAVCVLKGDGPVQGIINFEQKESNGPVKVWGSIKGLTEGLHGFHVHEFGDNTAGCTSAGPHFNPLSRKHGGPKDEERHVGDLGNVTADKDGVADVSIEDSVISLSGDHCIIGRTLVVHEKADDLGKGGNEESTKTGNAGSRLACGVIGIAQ
Protocol for mSOD1 aggregates: Under isoflurane anesthesia. […] Imaging days post administration of the radiotracer were optimized as the first results were collected the last groups being imaged only at days 7 and 10. Once the radiotracer administrated, the mouse was placed in its cage to recuperate from anesthesia and returned to the housing facility.
PET imaging was performed on days 7 and 10 following the administration of the radiotracer. Imaging was done on a LabPET-2 PET scanner (https://imagingrt.com/. Bore size: 72 mm. Axial FOV: 50 mm. Transaxial FOV: 60 mm. Spatial resolution: 0.74 mm (Isotropic at 5 mm from center). Detection efficiency (250-650 keV): 3.3% dedicated to small animal imaging. Preparation and PET imaging was done under isoflurane anesthesia delivered through a nose cone (Induction 2-3% isoflurane then 1 - 2.5%. 1-1.5 L of oxygen/min) the level of anesthesia being modulated if required during PET imaging. An ophthalmic gel was applied to the eyes to prevent eye dryness. The mouse was positioned within the field of view of the PET imager and a 30 min static acquisition was performed then the bed of the imager was moved within the CT module of the LabPET8 scanner, and a 2 min CT acquisition was performed. During PET imaging, the mouse was kept warm using pulsed hot air maintained at 32 °C, the environment temperature and respiration rate being monitored throughout the imaging procedure (PCSAM. Model 1025T Monitoring & Gating System, SA Instruments Inc.). Once the imaging procedure was completed, the mouse was placed in its cage to recuperate from anesthesia and returned to the housing facility.
PET data were acquired in list mode and reconstructed on a 200 x 200 x 168 grid with 0.3 x 0.3 x 0.3 mm^3 voxel size using 16 iterations and 8 subset of the 3D Ordered Subset Expectation Maximization (OSEM) algorithm. All PET images were corrected for the physical radionuclide decay of ^89Zr and random coincidences. […]
Once reconstructed the PET images were visually inspected to identify potential mSOD1 aggregates, which appear as discrete radiotracer spots within the spinal cord. […] The criteria for validity were that the spot was well defined within the spinal cord and not contaminated by radioactivity spilled in form the presence of the radiotracer in the anterior portion of the vertebra. […]
Once located region of interest (ROI) was then traced around these spots and the measure radiotracer content corrected for the partial volume effect (PVE) using the recovery coefficient and for spill-in from the presence of free ^89Zr in the anterior part of the vertebra (Fig. 4). […] The radioactivity content of m-SOD1 aggregated was expressed in terms of %ID/g.

With “Degly-^89Zr-DFO-AP-101: ^89Zr-DFO-AP-101 in which the AP-101 antibody is deglycosylated”, the “number of detected spots including false positive spots” value in the assay with mSOD1 aggregates (day 7 post administration) is recorded as 6 spots; in the assay with mSOD1 aggregates (day 10 post administration), 12 spots. The matching figures for “^89Zr-DFO-AP-101: AP-101 antibody, SCN-Bn-DFO as bifunctional chelator and ^89Zr as radionuclide; PET radiotracer”: 6 spots and 18 spots.

B1: AP-101 (antibody, V domains shown)
VH: EVQLVESGAEVKKPGASVTLSCKASGYTFTAYYIHWVRQAREQGLEWMGVINPSTGTTFYAQNFPDRVSVTRDTSTSTVFMELHNLKSEDTAVYYCARAISEHGSGSYSPYYWGQGTLVTVSS
VL: SYVLTQPPSVSVSLGQMAAITCSGEALPKKYGYWYQQKPGQVPVLLIYRDVERPSGVPDRFSGSSSGTMVTLTISGVQAEDEADYYCLSADSSGTWVFGGGTKLTVL
For the molecule B1, in the assay with denatured human SOD1 [1], the EC50 came out at 0.2 nM.

B2: ^natZr-DFO-AP-101 (antibody, human IgG1, V domains shown)
VH: B1 VH
VL: B1 VL
modifications: p-SCN-Bn desferoxamine (DFO) chelator conjugated randomly on lysine residues; p-SCN-Bn desferoxamine (DFO) chelator conjugated randomly on lysine residues, DFO:AP-101 ratio 1.1:1.0; natZr complexed
notes: also called DFO-α-miSOD1
As to B2, the EC50 with denatured human SOD1 [2] worked out at 0.5 nM; with denatured human SOD1 [3], 0.3 nM.

B3: Degly-^natZr-DFO-AP-101 (antibody, human IgG1, V domains shown)
VH: B1 VH
VL: B1 VL
modifications: DFO chelator conjugated randomly on lysine residues; Fc N-glycans removed with EndoS2 (GlycINATOR); DFO chelator on lysine residues, average 0.6 DFO per antibody; natZr complexed
In turn, B3 had an EC50 with denatured human SOD1 [3] of 2.4 nM.

A word on the EC50: it is the concentration needed to bring the measured effect to its halfway point. Read a high EC50 as a less potent agent.
